Results taken from patent US4321254A, “Antiallergic imidodisulfamides” (SmithKline Corporation, priority 1980, dated 1982).

System: slow reacting substance of anaphylaxis (SRS-A)
Test: Inhibition of SRS-A induced contraction of guinea pig ileum
Settings: compound concentration 5×10^-6 M, partially purified SRS-A from guinea pig lung, agonist 40 μg/ml, 15 min, 5 µM
Procedure: The SRS-A antagonist activity of the compounds of this invention is measured by the ability of the active medicament to inhibit SRS-A induced contraction of guinea pig ileum. In this test system, sections of ileum are resected from guinea pigs and placed in 5 ml. tissue baths containing a modified Tyrode's solution. One end of the tissue is fixed to a glass tissue holder, the other is connected to a force-displacement transducer and the tissue is placed under a tension of 500 mg. Isometric tissue contractions are recorded on a six channel polygraph. Baths are constantly aerated with 95% O2 -5% CO2. After a 20 minute stabilization period a concentration of the appropriate agonist which provides a contraction height of 60-80% of the maximum obtainable to that agonist (as determined) from full sequential concentration--response curves in separate experiments) is added to the tissue bath and the response recorded. The procedure is repeated until reproducible responses are obtained. […] Percent inhibition produced by the test compound is calculated by substracting the mean percentage change in control tissue from the mean percentage change in tissues exposed to the test compound. Additional compounds are then evaluated as long as the tissue remains reproducibly responsive to the agonist. […]

O=S(=O)(Nc1ccc2c(c1)CN(S(=O)(=O)NS(=O)(=O)N1CCc3ccc(NS(=O)(=O)c4ccc(Cl)cc4)cc3C1)CC2)c1ccc(Cl)cc1 [Compound 1, N,N'-bis[7-(4-chlorophenylsulfonamide)-1,2,3,4-tetrahydroisoquinolyl]disulfonylimide]
percent antagonism of SRS-A induced contraction: 59%
